The record followed here is patent publication US20080139387A1, “Fungicidal Mixtures” (BASF Aktiengesellschaft, priority 2004, published 2008).

The subject of this experiment is Cochliobolus miyabeanus. The experiment is described as follows: Activity against brown spot of rice caused by Cochliobolus miyabeanus, protective application. The conditions noted are these: individual active compound, rice seedlings, rated after six days. The class given is in vivo. How it is done: The active compounds, separately or jointly, were prepared as a stock solution comprising 0.25% by weight of active compound in acetone or DMSO. 1% by weight of the emulsifier Uniperol® EL (wetting agent having emulsifying and dispersing action based on ethoxylated alkylphenols) was added to this solution, and the mixture was appropriately diluted with water to the desired concentration.
Use example—Activity against brown spot of rice caused by Cochliobolus miyabeanus, protective application Leaves of rice seedlings of the cultivar “Tai-Nong 67” which had been grown in pots were sprayed to runoff point with an aqueous suspension having the concentration of active compound stated below. The next day, the plants were inoculated with an aqueous spore suspension of Cochliobolus miyabeanus. The test plants were then placed in climatized chambers at 22-24° C. and 95-99% relative atmospheric humidity for six days. The extent of the development of infection on the leaves was then determined visually.
Evaluation is carried out by determining the infected leaf areas in percent. These percentages were converted into efficacies.
The efficacy (E) is calculated as follows using Abbot's formula: […]
α corresponds to the fungal infection of the treated plants in % and β corresponds to the fungal infection of the untreated (control) plants in % An efficacy of 0 means that the infection level of the treated plants corresponds to that of the untreated control plants; an efficacy of 100 means that the treated plants are not infected.
The expected efficacies of the mixtures of active compounds are determined using Colby's formula [R. S. Colby, Weeds, 15, 20-22 (1967)] and are compared with the observed efficacies.
E expected efficacy, expressed in % of the untreated control, when using the mixture of the active compounds A and B at the concentrations a and b x efficacy, expressed in % of the untreated control, when using active compound A at the concentration a y efficacy, expressed in % of the untreated control, when using active compound B at the concentration b

Regarding `CCCCCCCCCCCCCN1CC(C)OC(C)C1` (stereo not shown) [II (tridemorph), tridemorph], the “Efficacy in % of the untreated control” value (1 ppm in the spray liquor) is given as 0%, the “Efficacy in % of the untreated control” value (4 ppm in the spray liquor) was 0% and the “Efficacy in % of the untreated control” value (16 ppm in the spray liquor) is 9%.
Regarding `CC1CCN(c2c(-c3c(F)cc(F)cc3F)c(Cl)nc3ncnn23)CC1` [I, 5-chloro-7-(4-methylpiperidin-1-yl)-6-(2,4,6-trifluorophenyl)-[1,2,4]tri-azolo[1,5-a]pyrimidine], the “Efficacy in % of the untreated control” value (4 ppm in the spray liquor) was 32%.
